System: Acinetobacter baumannii (Ab23)
Test: MIC shift assay of antibiotics (broth microdilution)
Assay type: cell-based
Settings: fold shift of colistin MIC, nc = no changeover or no shift
Method: Minimum inhibitory concentration (MIC) shift assays were performed to determine if the test compounds could alter the MIC of existing antibacterial drugs (e.g., ciprofloxacin and colistin) for E. coli, Acinetobacter baumannii, Klebsiella pneumoniae, Pseudomonas aeruginosa, and Enterobacter cloacae. The MIC shift assay is based on the standard broth microdilution MIC determination protocol of Wiegand et al, Nat Protoc. 3(2):163-75 (2008), with slight modifications that allow for the screening of up to seven test compounds in a single plate.
On the day before an assay, bacteria were grown overnight in cation-adjusted Mueller Hinton broth (CAMHB; Teknova, Hollister, Calif.) at 37° C. in an orbital shaker and sub-cultured at a 1:200 dilution the following morning. The cells were grown to OD600=0.5 to 0.8 and then diluted to OD600=0.01. From a serial dilution of each antibiotic at (50 μL of 2× concentrated stock solutions) several concentrations were added to the wells of a sterile, transparent round-bottom 96-well plate (Phenix Research Products, Candler, N.C.), and diluted cells (50 μL) were added to the plates for a starting OD600 of 0.005. […] A row of wells lacking test compound but containing the antibiotic was used to determine the MIC of that antibiotic alone. A column of wells lacking both antibiotic and test compound served as a growth control, and an additional column containing only CAMHB was included as a sterile blank control.
The plates were incubated for 18 to 20 h at 37° C. in an orbital shaker, and the cell density (OD600) was determined the following day in a microplate reader (PolarStar Optima, BMG Labtech). The MIC shift was determined by comparing the MIC of the antibiotic alone to the MIC of the antibiotic plus test compound.

colistin MIC shift, Ab23 at (compd concentration) (compound concentration 4 μM)	Structure (SMILES)	further results
8x	Fc1ccc2c(/C=C/c3cc(Cl)c(Cl)c(Cl)c3)c[nH]c2c1 [compound 397]	
32x	FC(F)(F)c1ccc2c(-c3ccc(Cl)c(Cl)c3)n[nH]c2c1 [compound 541]	
2x	CCN(CC)CCCC(C)Nc1nc(/C=C/c2ccc(Cl)c(Cl)c2)nc2ccc(Cl)cc12 (racemic) [compound 317]	
8x	Cc1cccc2c(NCCCN(C)C)nc(-c3cc(F)cc(C(F)(F)F)c3)nc12 [compound 508]	
8x	CN(C)CCOC(=O)n1cc(-c2ccc(Cl)c(Cl)c2)c2cc(Cl)ccc21 [362a]	
	Fc1cc(-c2n[nH]c3cc(C(F)(F)F)ccc23)cc(C(F)(F)F)c1 [compound 550]	colistin MIC shift, Ab23 at (compd concentration) (compound concentration 10 μM): 64x
128x	Cc1cccc2c(NCCCN)nc(-c3cc(-c4ccccc4Cl)cc(C(F)(F)F)c3)nc12 [524m]	
	CCN(CC)CCCC(C)Nc1nc(-c2cccc(-c3ccccc3)c2)nc2c(Cl)cccc12 (stereo not drawn) [compound 485]	colistin MIC shift, Ab23 at (compd concentration) (compound concentration 10 μM): 8x
	Cc1ccc2nc(-c3cc(Br)cc(C(F)(F)F)c3)nc(NCCCN(C)C)c2c1 [compound 516]	colistin MIC shift, Ab23 at (compd concentration) (compound concentration 10 μM): 16x
16x	Fc1ccc2c(/C=C/c3ccc(C(F)(F)F)cc3)c[nH]c2c1 [compound 387]	
8x	CN(C)CCCNc1nc(-c2cc(Br)cc(C(F)(F)F)c2)nc2ccc(Br)cc12 [compound 515]	
	FC(F)(F)c1cc(Br)cc(-c2n[nH]c3cc(C(F)(F)F)ccc23)c1 [compound 548]	colistin MIC shift, Ab23 at (compd concentration) (compound concentration 10 μM): 16x
	CCN(CC)CCCC(C)Nc1nc(/C=C/c2cccc(Br)c2)nc2cc(Cl)ccc12 (racemic) [compound 306]	colistin MIC shift, Ab23 at (compd concentration) (compound concentration 8 μM): 4x
8x	CN(C)CCCNc1nc(-c2cn(Cc3ccccc3)c3c(Cl)cccc23)nc2cc(Cl)ccc12 [compound 585]	
32x	CN(C)CC(=O)n1cc(/C=C/c2ccc(Cl)c(Cl)c2)c2cc(Br)ccc21 [362e]	
16x	Cc1cccc2c(NCCCN(C)C)nc(-c3cccc(-c4ccc(C(F)(F)F)cc4F)c3)nc12 [compound 472]	
4x	CNCCCNc1nc(-c2cn(Cc3ccc(Cl)cc3)c3c(Cl)cccc23)nc2c(C)cccc12 [compound 583]	
	FC(F)(F)c1cc(-c2c[nH]c3cc(Cl)c(Cl)cc23)ccc1Cl [compound 436]	colistin MIC shift, Ab23 at (compd concentration) (compound concentration 2 μM): 4x
	N#Cc1cccc(-c2n[nH]c3cc(F)ccc23)c1 [compound 538]	colistin MIC shift, Ab23 at (compd concentration) (compound concentration 10 μM): 1x

colistin MIC shift, Ab23 at (compd concentration) (compound concentration 4 μM)	Structure (SMILES)	further results
32x	CCC(N)C(=O)n1cc(/C=C/c2ccc(Cl)c(Cl)c2)c2cc(Br)ccc21 (stereo not drawn) [362d]	
	Cc1cccc2c(NCCCN(C)C)nc(-c3cc(-c4ccncc4)cc(C(F)(F)F)c3)nc12 [compound 336]	colistin MIC shift, Ab23 at (compd concentration) (compound concentration 2 μM): 8-16x
16x	Cc1cccc(Cn2cc(-c3nc(NCCCN(C)C)c4cccc(C)c4n3)c3cccc(Cl)c32)c1 [compound 575]	
16x	FC(F)(F)c1ccc2c(-c3ccc(Cl)c(Cl)c3)n[nH]c2c1 [compound 390, 3-(3,4-dichlorophenyl)-6-(trifluoromethyl)-1H-indazole]	
8x	CNCCCNc1nc(-c2cn(Cc3ccccc3)c3c(Cl)cccc23)nc2c(C)cccc12 [compound 580]	
16x	CCN(CC)CCCC(C)Nc1nc(-c2cccc(-c3cc(Cl)cc(Cl)c3)c2)nc2c(C)cccc12 (stereo not drawn) [compound 469]	
	CCN(CC)CCCC(C)Nc1nc(/C=C/c2ccc(C(=O)OC)cc2)nc2cc(Cl)ccc12 (racemic) [compound 309]	colistin MIC shift, Ab23 at (compd concentration) (compound concentration 10 μM): 4x
16x	Cc1ccc(Cn2cc(-c3nc(NCCCN(C)C)c4cccc(C)c4n3)c3cccc(Cl)c32)cc1 [compound 573]	
	Nc1cc(-c2n[nH]c3cc(C(F)(F)F)ccc23)cc(C(F)(F)F)c1 [compound 554]	colistin MIC shift, Ab23 at (compd concentration) (compound concentration 10 μM): 8x
	Fc1cc(-c2n[nH]c3ccc(Cl)cc23)ccc1C(F)(F)F [compound 539]	colistin MIC shift, Ab23 at (compd concentration) (compound concentration 10 μM): 4x
	O=C(O)CCn1cc(/C=C/c2ccc(Cl)c(Cl)c2)c2ccc(F)cc21 [compound 417]	colistin MIC shift, Ab23 at (compd concentration) (compound concentration 10 μM): 8x
32x	CN(C)CCCNc1nc(-c2cccc(-c3ccc(Cl)c(Cl)c3)c2)nc2c(Cl)cccc12 [compound 488]	
4x	CCNCCCC(C)Nc1nc(-c2cn(Cc3ccccc3)c3c(Cl)cccc23)nc2c(C)cccc12 (racemic) [compound 581]	
8x	Cc1cccc2c(N(C)CCCN(C)C)nc(-c3cn(Cc4ccc(Cl)cc4)c4c(Cl)cccc34)nc12 [compound 582]	
	CN(C)CCn1nc(-c2ccc(Cl)c(Cl)c2)c2ccc(C(F)(F)F)cc21 [559c]	colistin MIC shift, Ab23 at (compd concentration) (compound concentration 8 μM): 2x
	CN(C)CC(=O)n1nc(-c2ccc(Cl)c(Cl)c2)c2ccc(C(F)(F)F)cc21 [559b]	colistin MIC shift, Ab23 at (compd concentration) (compound concentration 8 μM): 8x
8-16x	CN(C)CCCN(C)c1nc(/C=C/c2ccc(Cl)c(Cl)c2)nc2cc(Cl)c(Cl)cc12 [compound 327]	
32x (4 μM);	Fc1ccc2c(/C=C/c3cccc(Cl)c3Cl)c[nH]c2c1 [compound 383]	colistin MIC shift, Ab23 at (compd concentration) (compound concentration 2 μM): ≧16x (2μM)
64x	Cc1c(Cl)ccc2c(NCCCN(C)C)nc(-c3cc(Br)cc(C(F)(F)F)c3)nc12 [compound 511]	

colistin MIC shift, Ab23 at (compd concentration) (compound concentration 4 μM)	Structure (SMILES)	further results
	CCN(CC)CCCC(C)Nc1nc(-c2cn(Cc3ccccc3)c3c(Cl)cccc23)nc2ccccc12 (racemic) [compound 562]	colistin MIC shift, Ab23 at (compd concentration) (compound concentration 10 μM): 8x
16x	CN(C)CCCNc1nc(-c2cccc(-c3ccc(C(F)(F)F)c(F)c3)c2)nc2c(Cl)cccc12 [compound 489]	
8-16 x	Fc1ccc2c(/C=C/c3ccc(F)c(C(F)(F)F)c3)c[nH]c2c1 [compound 385]	
	FC(F)(F)c1cc(Cl)cc(-c2n[nH]c3cc(C(F)(F)F)ccc23)c1 [compound 551]	colistin MIC shift, Ab23 at (compd concentration) (compound concentration 10 μM): 32x
16x	Cc1cccc2c(NCCCN(C)C)nc(-c3cn(Cc4ccccc4)c4cc(Cl)ccc34)nc12 [compound 586]	
	CCN(CC)CCCNc1nc(-c2cc(Br)cc(C(F)(F)F)c2)nc2c(C)cccc12 [compound 352]	colistin MIC shift, Ab23 at (compd concentration) (compound concentration 2 μM): 8-16x
	Cc1cccc2c(NCCCN(C)C)nc(-c3cccc(C(F)(F)F)c3)nc12 [compound 499]	colistin MIC shift, Ab23 at (compd concentration) (compound concentration 8 μM): 16x
64x	Cc1cccc2c(NCCCN3CCNCC3)nc(-c3cc(Br)cc(C(F)(F)F)c3)nc12 [compound 462]	
	FC(F)(F)c1cccc(-c2c[nH]c3cc(Cl)c(Cl)cc23)c1 [compound 431]	colistin MIC shift, Ab23 at (compd concentration) (compound concentration 1 μM): 4x (1 μM);; colistin MIC shift, Ab23 at (compd concentration) (compound concentration 2 μM): ≧16x (2 μM)
	Fc1cc(C(F)(F)F)ccc1-c1cccc(-c2n[nH]c3cc(C(F)(F)F)ccc23)c1 [compound 531]	colistin MIC shift, Ab23 at (compd concentration) (compound concentration 10 μM): 4x
	O=C(c1ccc(Cl)c(Cl)c1)n1nc(-c2ccc(Cl)c(Cl)c2)c2ccc(C(F)(F)F)cc21 [compound 558]	colistin MIC shift, Ab23 at (compd concentration) (compound concentration 10 μM): 1x
	O=C(Nc1ccc(Cl)c(Cl)c1)c1c[nH]c2cc(Br)ccc12 [compound 424]	colistin MIC shift, Ab23 at (compd concentration) (compound concentration 2 μM): 4x
4x	FC(F)(F)c1cccc(-c2ccc3[nH]ccc3c2)c1 [compound 398, 5-(3-(trifluoromethyl)phenyl)-1H-indole]	
2-8x	CCN(CC)CCCC(C)Nc1nc(/C=C/c2ccc(Cl)c(Cl)c2)nc2c(Br)cccc12 (racemic) [compound 316]	
16x	CN(C)CCCNc1nc(-c2cn(Cc3ccccc3)c3c(Cl)cccc23)nc2c(Cl)cccc12 [compound 567]	
	Fc1ccc2c(-c3cccc(Cl)c3)n[nH]c2c1 [compound 534]	colistin MIC shift, Ab23 at (compd concentration) (compound concentration 10 μM): 1x
	CN(C)CCCn1nc(-c2ccc(Cl)c(Cl)c2)c2ccc(C(F)(F)F)cc21 [559a]	colistin MIC shift, Ab23 at (compd concentration) (compound concentration 8 μM): 8x
	Cc1cccc2c(NCCCN3CCCCC3)nc(-c3cc(Br)cc(C(F)(F)F)c3)nc12 [compound 347]	colistin MIC shift, Ab23 at (compd concentration) (compound concentration 2 μM): 8-16x
32x	Cc1cccc2c(NCCCN(C)C)nc(-c3cccc(-c4cc(C(F)(F)F)ccc4F)c3)nc12 [compound 474]	

Structure (SMILES)	colistin MIC shift, Ab23 at (compd concentration) (compound concentration 4 μM)	further results
Clc1ccc2[nH]cc(-c3ccc(Cl)c(Cl)c3)c2c1 [compound 395, 5-Chloro-3-(3,4-dichlorophenyl)-1H-indole]	8x	

From patent publication US20160168140A1, “HETEROCYCLIC COMPOUNDS AS ANTIBIOTIC POTENTIATORS” (priority 2014, published 2016)
